Experimental data published in patent publication US20230373972A1, “PIPERAZINE DERIVATIVE, PREPARATION METHOD THEREFOR AND USE THEREOF” (Zhejiang Hisun Pharmaceutical Co., Ltd., priority 2020, published 2023).

Key:
[1] = target: T1, Native human Factor XIa protease (Homo sapiens, UniProt P03951); assay: Inhibition of activity of Factor XIa protease (chromogenic substrate S-2366); assay type: biochemical; settings: S-2366 1 mM, 37° C. 10 minutes, absorption at 405 nm
T1 construct: The Native human Factor XIa protease was purchased from Abcam; purchased Abcam ab62411
From the text: The following method was used to determine an inhibition degree of the compound of the present invention on an activity of Native human Factor XIa protease in vitro. In the method, a Factor XIa chromogenic substrate was used to test the inhibition degree on the activity of the Factor XIa protease. The Native human Factor XIa protease was purchased from Abcam (article number ab62411), and S-2366 was purchased from Chromogenix (article number 82109039). An experimental process was briefly described as follows: a test compound was dissolved in DMSO to prepare a 10 mM storage solution first, then the compound was diluted with a Factor XIa reaction buffer (100 mM Tris-HCl, 200 mM NaCl, 0.02% Tween 20, pH 7.4) by a quadruple gradient, and a final concentration of the test compound in a reaction system ranged from 10,000 nM to […]. The reaction was carried out in a 384-well microplate. 2 μL of the test compounds at different concentrations diluted with the reaction buffer were added to wells first, and 2 μL of 1% DMSO (a final concentration of DMSO in the reaction system was 0.1%) was used to replace blank and control wells. Subsequently, 8 μL of enzyme working solution (a final concentration of Factor XIa was […]) was added to each well, and 8 μL of Factor XIa reaction buffer was used to replace the blank well, centrifuged for 30 seconds, and incubated on ice for 5 minutes. Finally, 10 μL of substrate working solution (a final concentration of S-2366 was 1 mM) was added to each well, and centrifuged for 30 seconds, and the reaction was started. The solution was incubated at 37° C. for 10 minutes to determine a light absorption value at 405 nm. By comparing with a light absorption value of the control group (0.1% DMSO), a percentage inhibition rate of the compound at each concentration was calculated, and nonlinear regression analysis was carried out on value-inhibition rate with the concentration of the compound by GraphPad Prism 5 software, so as to obtain an IC50 value of the compound, as shown in Table 1.

[2] = tested on: human plasma; assay: In-vitro anticoagulation on human plasma (APTT kit, coagulation time); settings: concentration of the compound when the coagulation time (APTT) was prolonged twice
Experimental: The following method was used to determine the in-vitro anticoagulation of the compound of the present invention in the human plasma. In the method, an APTT kit of the MediRox company was used to test. The APTT kit was purchased from MediRox (article number MRX930), and the human plasma was prepared internally.
The preparation of the human plasma was briefly described as follows: human plasma was collected in a blood collection tube containing sodium citrate, and centrifuged at 3,000 rpm for 10 minutes at room temperature, and plasma was collected, and packaged separately and stored at −80° C.
An APTT test process was briefly described as follows: a test compound was dissolved in DMSO to prepare a 10 mM storage solution first, then the test compound was diluted with DMSO by a triple gradient, and a final concentration of the test compound in a reaction system ranged from 217 μM to 0.03 μM. 4 μL, of test compounds at different concentrations diluted with DMSO were added to a centrifuge tube containing 180 μL of plasma, and 4 μL of DMSO was added to a blank group, shaken and mixed evenly, and incubated at 37° C. for 5 minutes. Subsequently, an APTT reagent was placed in a reagent holder according to instrument requirements, the incubated plasma sample was placed in a detection position of a coagulation analyzer, and a coagulation time was determined and recorded (s). With a final concentration of the compound as an abscissa and Ratio (Ratio=TiT0, wherein T0 was a coagulation time of a blank control, and Ti was a coagulation time of a compound to be tested) as an ordinate, a coagulation dose-effect curve was drawn by Graph Pad Prisms, and a concentration of the compound when the coagulation time was prolonged twice was calculated, which was namely a CT2 value, as shown in Table 2.

T1 sequence (P03951 388-625 limits assumed): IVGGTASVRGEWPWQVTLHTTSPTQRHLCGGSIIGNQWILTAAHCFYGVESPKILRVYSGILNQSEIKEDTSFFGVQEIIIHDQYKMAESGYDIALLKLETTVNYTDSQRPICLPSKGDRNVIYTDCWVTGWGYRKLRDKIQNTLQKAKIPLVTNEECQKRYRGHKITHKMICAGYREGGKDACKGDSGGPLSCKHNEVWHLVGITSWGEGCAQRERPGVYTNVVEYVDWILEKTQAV
T1 sequence (P03951 19-387 partner limits assumed): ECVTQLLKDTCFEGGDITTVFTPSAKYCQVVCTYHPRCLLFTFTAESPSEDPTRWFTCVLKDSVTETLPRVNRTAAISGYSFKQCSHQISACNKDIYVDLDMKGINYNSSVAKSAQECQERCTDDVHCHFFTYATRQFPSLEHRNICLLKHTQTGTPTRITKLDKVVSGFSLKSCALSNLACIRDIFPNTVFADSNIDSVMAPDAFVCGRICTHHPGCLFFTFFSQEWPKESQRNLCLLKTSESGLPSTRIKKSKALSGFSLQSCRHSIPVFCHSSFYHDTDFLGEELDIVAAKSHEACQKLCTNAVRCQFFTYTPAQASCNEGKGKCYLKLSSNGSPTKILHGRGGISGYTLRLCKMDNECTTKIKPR

SMILES	IC50 [1] [nM]	CT2 [2] [µM]
Cn1cc2ccc(NC(=O)C(Cc3ccccc3)N3CC(=O)N(c4cc(Cl)ccc4-n4cnnn4)CC3=O)cc2n1 (centres unmarked) [Example 31, 2-(4-(5-Chloro-2-(1H-tetrazol-1-yl)phenyl)-2,5-dioxopiperazin-1-yl)-N-(2-methyl-2H-indazol-6-yl)-3-phenylpropanamide]	38.9	13.7
CC(=O)c1ccc(NC(=O)C(Cc2ccccc2)N2CC(=O)N(c3cc(Cl)ccc3-n3cnnn3)CC2=O)cc1 (centres unmarked) [Example 17]	34.8	11.2
NC(=O)c1ccc(NC(=O)C(Cc2ccccc2)N2CC(=O)N(c3cc(Cl)ccc3-n3cnnn3)CC2=O)cc1F (centres unmarked) [Example 35, 4-(2-(4-(5-Chloro-2-(1H-tetrazol-1-yl)phenyl)-2,5-dioxopiperazin-1-yl)-3-phenylpropanamido)-2-fluorobenzamide]	32	5.8
O=C(Nc1ccc(N2CCOC2=O)cc1)C(Cc1ccccc1)N1CC(=O)N(c2cc(Cl)ccc2-n2cnnn2)CC1=O (centres unmarked) [Example 14, 2-(4-(5-Chloro-2-(1H-tetrazol-1-yl)phenyl)-2,5-dioxopiperazin-1-yl)-N-(4-(2-oxooxazolidin-3-yl)phenyl)-3-phenylpropanamide]	44	14.3
[2H]C([2H])([2H])n1cc2cc(NC(=O)C(Cc3ccc(F)cc3)N3CC(=O)N(c4cc(Cl)ccc4-n4cc(Cl)nn4)CC3=O)ccc2n1 (centres unmarked) [Example 114, 2-(4-(5-chloro-2-(4-chloro-1H-1,2,3-triazol-1-yl)phenyl)-2,5-dioxopiperazin-1-yl)-3-(4-fluorophenyl)-N-(2-(methyl-d3)-2H-indazol-5-yl)propanamide]	48.6	14.9
O=C(O)c1ccc(NC(=O)C(Cc2ccccc2)N2CC(=O)N(c3cc(Cl)ccc3-n3ccnn3)CC2=O)cc1 (centres unmarked) [Example 11, 4-(2-(4-(5-Chloro-2-(1H-1,2,3-triazole-1-yl)phenyl)-2,5-dioxopiperazin-1-yl)-3-phenylpropanamido)benzoic Acid]	24.9	8.1
COC(=O)Nc1ccc(NC(=O)C(Cc2ccccc2)N2CC(=O)N(c3cc(Cl)ccc3-n3cnnn3)CC2=O)cc1 (centres unmarked) [Example 2, Methyl (4-(2-(4-(5-chloro-2-(1H-tetrazol-1-yl)phenyl)-2,5-dioxopiperazin-1-yl)-3-phenylpropanamido)phenyl)carbamate]	44.9	12.6
O=C(Nc1ccc2c(cnn2C(F)F)c1)C(Cc1ccccc1)N1CC(=O)N(c2cc(Cl)ccc2-n2cnnn2)CC1=O (centres unmarked) [Example 33, 2-(4-(5-chloro-2-(1H-tetrazol-1-yl)phenyl)-2,5-dioxopiperazin-1-yl)-N-(1-(difluoromethyl)-1H-indazol-5-yl)-3-phenylpropanamide]	26.1	18.5

Continued by falling IC50 [1], values first:

IC50 [1] [nM]	SMILES	CT2 [2] [µM]
25.6	Cn1ccc(C[C@@H](C(=O)Nc2ccc3nn(C)cc3c2)N2CC(=O)N(c3cc(Cl)ccc3-n3cc(Cl)nn3)CC2=O)n1 [Example 112, (S)-2-(4-(5-chloro-2-(4-chloro-1H-1,2,3-triazole-1-yl)phenyl)-2,5-dioxopiperazin-1-yl)-3-(1-methyl-1H-pyrazole-3-yl)-N-(2-methyl-2H-indazol-5-yl)propionamide]	5.6
25.1	O=C(Nc1cccc(F)c1)C(Cc1ccccc1)N1CC(=O)N(c2cc(Cl)ccc2-n2cnnn2)CC1=O (centres unmarked) [Example 15, 2-(4-(5-Chloro-2-(1H-tetrazol-1-yl)phenyl)-2,5-dioxopiperazine-1-yl)-N-(3-fluorophenyl)-3-phenylpropanamide]	9.9
21.2	O=C(Nc1ccc2nn(C(F)F)cc2c1)[C@H](Cc1ccccc1)N1CC(=O)N(c2cc(Cl)ccc2-n2cc(Cl)nn2)CC1=O [Example 97, (S)-2-(4-(5-chloro-2-(4-chloro-1H-1,2,3-triazol-1-yl)phenyl)-2,5-dioxopiperazin-1-yl)-N-(2-(difluoromethyl)-2H-indazol-5-yl)-3-phenylpropanamide]	12.5
20.5	O=C(Nc1ccc2nccnc2c1)C(Cc1ccccc1)N1CC(=O)N(c2cc(Cl)ccc2-n2cnnn2)CC1=O (centres unmarked) [Example 18, 2-(4-(5-Chloro-2-(1H-tetrazol-1-yl)phenyl)-2,5-dioxopiperazin-1-yl)-3-phenyl-N-(quinoxalin-6-yl)propanamide]	7.9
15.5	O=C1NCc2cc(NC(=O)C(Cc3ccccc3)N3CC(=O)N(c4cc(Cl)ccc4-n4cnnn4)CC3=O)ccc21 (centres unmarked) [Example 7, 2-(4-(5-Chloro-2-(1H-tetrazol-1-yl)phenyl)-2,5-dioxopiperazine-1-yl)-N-(1-oxoisoindolin-5-yl)-3-phenylpropanamide]	9.8
10.4	O=C(Nc1ccc2nn(C(F)F)cc2c1)C(Cc1ccccc1)N1CC(=O)N(c2cc(Cl)ccc2-n2cnnn2)CC1=O (centres unmarked) [Example 34, 2-(4-(5-Chloro-2-(1H-tetrazol-1-yl)phenyl)-2,5-dioxopiperazin-1-yl)-N-(2-(difluoromethyl)-2H-indazol-5-yl)-3-phenylpropanamide]	5.9
8.5	Cn1cc2cc(NC(=O)C(Cc3ccccc3)N3CC(=O)N(c4cc(Cl)ccc4-n4cnnn4)CC3=O)ccc2n1 (centres unmarked) [Example 19, 2-(4-(5-Chloro-2-(1H-tetrazol-1-yl)phenyl)-2,5-dioxopiperazin-1-yl)-N-(2-methyl-2H-indazol-5-yl)-3-phenylpropanamide]	3.0
7.8	O=C(O)c1cccc(NC(=O)C(Cc2ccccc2)N2CC(=O)N(c3cc(Cl)ccc3-n3cnnn3)CC2=O)c1 (centres unmarked) [Example 9, 3-(2-(4-(5-Chloro-2-(1H-tetrazol-1-yl)phenyl)-2,5-dioxopiperazin-1-yl)-3-phenylpropanamido)benzoic Acid]	2.9
